Data from patent US7973014B2, “Medicinal composition containing ginseng secondary glycosides, its preparation method and application” (National Institute of Pharmaceutical R&D Co., Ltd., priority 2005, dated 2011).
Read-outs that look alike come from different tables or passages of the source. Marks after values point to notes of the source that are not given here.

Tests used:
[1] = test system: coronary blood flow in experimental myocardial ischemia dogs; assay: Coronary blood flow in experimental myocardial ischemia dogs; format: in vivo, dog; settings: 5 mg/kg
Method: (§1) Test dogs were divided into the following 8 groups, 6 dogs per group: (1) blank control group, 3 ml/kg physiological saline; (2) 5 mg/kg Diltiazem group; (3) 200 mg/kg “Di'ao Xinxuekang” group; (4) 200 mg/kg ginseng root total ginsenosides (briefly referred as root total ginsenosides) group; (5) 200 mg/kg ginseng stem/leave total ginsenosides (briefly referred as stem/leave total ginsenosides) group; (6) 25 mg/kg total secondary ginsenosides group; (7) 50 mg/kg total secondary ginsenosides group; and (8) 100 mg/kg total secondary ginsenosides group. All test drugs were formulated with distilled water to have the same volume (3 ml/kg), and were administered through duodenum.
(§2) Animals each was anesthetized with sodium pentobarbital (30 mg/kg), operated to form pericardium bed; left circumflex artery was separated, an electromagnetic flow meter probe was placed therein to measure cardiac coronary blood flow (CCBF); middle section of anterior descending coronary artery was separated, braided for ligation to create an experimental acute myocardial ischemia model; a multipoint fixed epicardial lead was sutured and connected with a multichannel electrophysiolograph to record epicardial electrogram. Coronary artery was ligated for 15 minutes, and recorded as control value before administration of drug, test drug or physiological saline was administered via duodenum, 30 mapping point epicardial electrograms were recorded at 15, 30, 45, 60, 90, 120, 180 minutes after the administration of drug, and the degree of myocardial ischemia (Σ-ST, total increase of mv number in S-T section) and the range of myocardial ischemia (N-ST, total increase of point numberin S-T section) were calculated. Blood samples were taken at orifice of coronary sinus vein by cannulation via external jugular vein before ischemia, at 15 minutes after ischemia (before administration of drug), and at 0, 30, 60, 90, 120, 180 minutes after administration of drug, the contents of oxygen in the coronary venous blood were measured by oxyhemograph; cannulation was made to common carotid artery, where the contents of […] in the arterial blood were measured, which together with coronary blood flow were used to calculate myocardial oxygen consumption (MOC). Blood samples were taken at the abovementioned time points to measure the levels of serum creatine kinase (CK) and lactic acid dehydrogenase (LDH); and the levels of blood plasma endothelin (ET), thromboxane B2 (TXB2) and 6-keto-prostaglandin F1a (6-Keto-PGF1a) were measured by an automatic γ-counter radioimmunologically.

[2] = test system: thrombosis in experimental rat jugular arteriovenous bypass; assay: Thrombosis in rat jugular arteriovenous bypass; format: in vivo; settings: for inhibition at 50 mg/kg: Rattus norvegicus
Method: 70 Rats, half male and half female, weighting 250-300 g, were randomly divided into 7 groups, 10 rats per group, and fed for one week in advance. The said 7 groups included high, middle and low dosage groups of the total secondary ginsenosides (200, 100 and 50 mg/kg), and control groups: Diltiazem group (50 mg/kg), Di'ao Xinxuekang group (200 mg/kg), root total ginsenosides group (200 mg/kg) and blank control group (water). administered All the drugs and controls were administered through intragastrical perfusion for 7 days.
Measurement of the rate for inhibition of thrombosis: on the 7th day after administration of drug, 30 minutes after the administration, each of rats was anesthetized with sodium pentobarbital, the left external jugular vein and right common carotid artery were separated, three segments of polyethylene tubes were used to form cannula, and then 5 cm weighed 4-suture was placed in the middle segment. These polyethylene tubes were filled with heparin-physiological saline (50 U/ml). When one end of the tube was inserted into the external jugular vein, one end of the tube was clamped and the end fixed by suture was inserted into the right common carotid artery. After this operation, bleeding was performed immediately and then stopped 15 minutes later, the suture was taken out quickly and weighed. The wet weight of thrombus was calculated by subtracting the suture weight from the total weight. The thrombosis inhibition rate was calculated according to the following formula. Inhibition rate (%)=[(Thrombus weight of the control group)−(Thrombus weight of the group administered with drug)]/(Thrombus weight of the control group)×100% Results: […]

[3] = test system: acute myocardial ischemia induced by coronary artery ligation in anesthetized dogs; assay: Myocardial ischemia induced by coronary artery ligation in anesthetized dogs, epicardial electrogram mapping; format: in vivo, dog; settings: 5 mg/kg
Method: as §1, §2
(§3) The test results were statistically analyzed, and t-test was used to determine the significance.

[4] = test system: rat arrhythmia induced by BaCl2; assay: Arrhythmia induced by BaCl2 in rats; format: in vivo; settings: 50 mg/kg
Method: 70 SD rats, including half male and half female, were randomly divided into: control group, Diltiazem group, 200 mg/kg Di'ao Xinxuekang group, 200 mg/kg the root total ginsenosides group, and 200, 100, 50, 25 mg/kg dosage groups of the total secondary ginsenosides. On the 7th day of administration of drug, 30 minutes after the administration of drug, each of the rats was anesthetized by intraperitoneal injection of 300 mg/kg 10% chloral hydrate, fixed in supine position on rat bench. The chart speed was set at 50 mm/s, and the sensitivity was set at 20 mm/mv. After printing under standard voltage, normal II Lead electrocardiogram was recorded for a certain period, then the rat was administered with 4 mg/kg barium chloride via sublingual vein and observed immediately to record the electrocardiograms at 1, 5, 10, 15, 20, 25, 30 minutes after the administration of barium chloride. The heart rate was calculated and compared with the reference value before administration, and the onset time and time period of arrhythmia were compared as well. The incidence rates of ventricular premature beat (VP), ventricular tachycardia (VT) and ventricular fibrillation (VF) were calculated.

[5] = test system: acute myocardial infarction in dogs; assay: Range of acute myocardial infarction in dogs, N-BT staining; format: in vivo, dog; settings: 5 mg/kg
Method: as §1
Recording was completed at 180 minutes after administration of drug, heart was taken out immediately, cardiac ventricle was cross-sectioned parallel to coronary sulcus under heart ligature to form 5 slices, which were placed in N-BT staining solution and stained at room temperature for 15 minutes. Infarction zone (N-BT non-staining zone) and non-infarction zone (N-BT staining zone) at both sides of each slice of cardiac muscle were measured by using a multimedia color pathologic image analysis system to calculate the area of each slice of cardiac muscle, the total area of the cardiac ventricle and the total area of the infarction zones. The percentages of infarction zones based on the cardiac ventricle and on the whole heart were calculated.
as §3

cancer cells = settings: cited from earlier work
platelets = settings: cited from earlier work
thrombin = thrombin (Homo sapiens, UniProt P00734); settings: cited from earlier work
[6] = oral administration, human body; cited from earlier work

COc1ccc([C@@H]2Sc3ccccc3N(CCN(C)C)C(=O)[C@@H]2OC(C)=O)cc1 [Diltiazem]
coronary blood flow ([1]; 30 min after drug): 110.36 ± 58.20 ml/100 g · min^−1
coronary blood flow change rate ([1]; 30 min after drug): 108.70 ± 3.32 %
coronary blood flow ([1]; 60 min after drug): 119.11 ± 61.62 ml/100 g · min^−1
coronary blood flow change rate ([1]; 60 min after drug): 117.06 ± 5.17 %
coronary blood flow ([1]; 90 min after drug): 122.97 ± 64.44 ml/100 g · min^−1
coronary blood flow change rate ([1]; 90 min after drug): 120.06 ± 7.27 %
coronary blood flow ([1]; 120 min after drug): 119.15 ± 65.51 ml/100 g · min^−1
coronary blood flow change rate ([1]; 120 min after drug): 116.97 ± 7.33 %
coronary blood flow ([1]; 180 min after drug): 112.10 ± 60.59 ml/100 g · min^−1
coronary blood flow change rate ([1]; 180 min after drug): 112.21 ± 6.46 %
coronary blood flow ([1]; after ischemia before drug): 101.82 ± 54.71 ml/100 g · min^−1
coronary blood flow change rate ([1]; after ischemia before drug): 110.34 ± 4.17%
coronary blood flow ([1]; before ischemia (normal value)): 92.07 ± 46.98 ml/100 g · min^−1
Wet weight of thrombus ([2]; 50 mg/kg intragastric, 7 days): 0.0200 ± 0.005 g
inhibition at 50 mg/kg ([2]; po, 168 h, 50 mg/kg intragastric, 7 days, read-out: Inhibition rate): 32.9%
inhibition at 50 mg/kg ([2]; 50 mg/kg, read-out: inhibition rate of thrombosis): 33%
N-ST change rate ([3]; 15 min after drug): 89.60 ± 8.40 %
acute myocardial ischemia (N-ST) ([3]; 15 min after drug): 24.83 ± 2.04
degree of acute myocardial ischemia (Σ-ST) ([3]; 15 min after drug): 182.00 ± 70.40 mv
Σ-ST change rate ([3]; 15 min after drug): 61.01 ± 20.89 %
N-ST change rate ([3]; 30 min after drug): 89.53 ± 15.49%
acute myocardial ischemia (N-ST) ([3]; 30 min after drug): 25.33 ± 4.08
degree of acute myocardial ischemia (Σ-ST) ([3]; 30 min after drug): 149.83 ± 41.36 mv
Σ-ST change rate ([3]; 30 min after drug): 48.75 ± 9.99 %
N-ST change rate ([3]; 45 min after drug): 86.82 ± 14.83%
acute myocardial ischemia (N-ST) ([3]; 45 min after drug): 23.17 ± 5.91
degree of acute myocardial ischemia (Σ-ST) ([3]; 45 min after drug): 126.00 ± 47.35 mv
Σ-ST change rate ([3]; 45 min after drug): 42.43 ± 8.97 %
N-ST change rate ([3]; 60 min after drug): 87.48 ± 15.08%
acute myocardial ischemia (N-ST) ([3]; 60 min after drug): 23.50 ± 4.85
degree of acute myocardial ischemia (Σ-ST) ([3]; 60 min after drug): 148.67 ± 71.87 mv
Σ-ST change rate ([3]; 60 min after drug): 47.78 ± 10.82 %
N-ST change rate ([3]; 90 min after drug): 81.41 ± 14.31 %
acute myocardial ischemia (N-ST) ([3]; 90 min after drug): 21.50 ± 5.86
degree of acute myocardial ischemia (Σ-ST) ([3]; 90 min after drug): 140.17 ± 63.46 mv
Σ-ST change rate ([3]; 90 min after drug): 54.98 ± 18.57 %
N-ST change rate ([3]; 120 min after drug): 77.22 ± 16.49 %
acute myocardial ischemia (N-ST) ([3]; 120 min after drug): 20.00 ± 6.00
degree of acute myocardial ischemia (Σ-ST) ([3]; 120 min after drug): 139.00 ± 69.20 mv
Σ-ST change rate ([3]; 120 min after drug): 52.21 ± 19.91 %
N-ST change rate ([3]; 180 min after drug): 75.89 ± 19.59 %
acute myocardial ischemia (N-ST) ([3]; 180 min after drug): 20.67 ± 5.99
degree of acute myocardial ischemia (Σ-ST) ([3]; 180 min after drug): 117.17 ± 54.27 mv
Σ-ST change rate ([3]; 180 min after drug): 45.99 ± 18.90 %
acute myocardial ischemia (N-ST) ([3]; before drug): 28.67
degree of acute myocardial ischemia (Σ-ST) ([3]; before drug): 291.00 ± 40.39 mv
Duration of arrhythmia [4]: 13.2 ± 6.0 min
Incidence rate of VF [4]: 0* %
Onset time of VP [4]: 15.0 ± 10.8 s
Onset time of VT [4]: 20 ± 8.8 s
Heart rate ([4]; 5 min after BaCl2): 327 ± 64 beat/min
Heart rate ([4]; 10 min after BaCl2): 360 ± 88 beat/min
Heart rate ([4]; 20 min after BaCl2): 381 ± 71 beat/min
Heart rate ([4]; 30 min after BaCl2): 399 ± 42 beat/min
Heart rate ([4]; before BaCl2): 397 ± 53 beat/min
Infarction zone area [5]: 266.25 ± 63.4*** mm^2
Infraction zone/cardiac ventricle [5]: 5.36 ± 1.70
Infraction zone/heart [5]: 2.27 ± 0.83

CC(C)=CCC[C@](C)(O)[C@H]1CC[C@]2(C)[C@@H]1[C@H](O)C[C@@H]1[C@@]3(C)CC[C@H](O[C@@H]4O[C@H](CO)[C@@H](O)[C@H](O)[C@H]4O[C@@H]4O[C@H](CO)[C@@H](O)[C@H](O)[C@H]4O)C(C)(C)[C@@H]3CC[C@]12C [Ginsenoside Rg3]
anticancer activity (cancer cells): significant anticancer activity
platelet aggregation induced by collagen or ADP (platelets): relatively strong inhibitory effects

CC(C)=CCC[C@](C)(O)[C@H]1CC[C@]2(C)[C@@H]1[C@H](O)C[C@@H]1[C@@]3(C)CC[C@H](O)C(C)(C)[C@@H]3[C@@H](O[C@@H]3O[C@H](CO)[C@@H](O)[C@H](O)[C@H]3O)C[C@]12C [Ginsenoside Rh1]
anticancer activity (cancer cells): significant anticancer activity
conversion of fibrinogen to fibrin induced by thrombin (thrombin): significant inhibitory effects

CC(C)=CCC[C@](C)(O)[C@H]1CC[C@]2(C)[C@@H]1[C@H](O)C[C@@H]1[C@@]3(C)CC[C@H](O[C@@H]4O[C@H](CO)[C@@H](O)[C@H](O)[C@H]4O)C(C)(C)[C@@H]3CC[C@]12C [Rh2, ginsenoside Rh2]
anticancer activity (cancer cells): significant anticancer activity

CC(C)=CCC[C@](C)(O[C@@H]1O[C@H](CO[C@@H]2O[C@H](CO)[C@@H](O)[C@H](O)[C@H]2O)[C@@H](O)[C@H](O)[C@H]1O)[C@H]1CC[C@]2(C)[C@@H]1[C@H](O)C[C@@H]1[C@@]3(C)CC[C@H](O[C@@H]4O[C@H](CO)[C@@H](O)[C@H](O)[C@H]4O[C@@H]4O[C@H](CO)[C@@H](O)[C@H](O)[C@H]4O)C(C)(C)[C@@H]3CC[C@]12C [ginsenoside-Rb1]
absorption rate [6]: 1%
